Laboratory results as given in ChEMBL document CHEMBL1121451, “Neuroleptic activity in 5-aryltetrahydro-gamma-carbolines” (J Med Chem, 1980).

Tests used:
[1] = tested on: Canis familiaris; assay: The ability of compound to prevent the emesis induced by apomorphine (0.1 mg/kg, iv) in dogs at the specified dosage of 3.2 mg/kg (sesame oil); type: functional, Canis lupus familiaris
[2] = organism: Rattus norvegicus; assay: Inhibition of amphetamine induced stereotypy in rats; pretreated 1 hr before amphetamine.; type: functional
[3] = tested on: Rattus norvegicus; assay: Tested for neuroleptic activity by measuring antagonism of d-amphetamine sulfate at intraperitoneal dosage of 5 mg/kg, after 5 hours in rat; type: functional; settings: ip
[4] = tested on: Rattus norvegicus; assay: Tested for neuroleptic activity by measuring antagonism of d-amphetamine sulfate at intraperitoneal dosage of 5 mg/kg, after 24 hours in rat; Range is 1.0-32; type: functional; settings: ip
[5] = tested on: Rattus norvegicus; assay: Tested for neuroleptic activity by measuring antagonism of d-amphetamine sulfate at intraperitoneal dosage of 5 mg/kg, after 1 hour in rat; Range is 0.32-1.0; type: functional; settings: ip
[6] = tested on: Rattus norvegicus; assay: Tested for neuroleptic activity by measuring antagonism of d-amphetamine sulfate at intraperitoneal dosage of 5 mg/kg, after 5 hours in rat; Range is 0.32-1.0; type: functional; settings: ip
[7] = tested on: Rattus norvegicus; assay: Tested for neuroleptic activity by measuring antagonism of d-amphetamine sulfate at intraperitoneal dosage of 5 mg/kg, after 24 hours in rat; Range is 3.2-10; type: functional; settings: ip
[8] = tested on: Rattus norvegicus; assay: Tested for neuroleptic activity by measuring antagonism of d-amphetamine sulfate at intraperitoneal dosage of 5 mg/kg, after 5 hours in rat; Range is 1.0-3.2; type: functional; settings: ip
[9] = tested on: Rattus norvegicus; assay: Tested for neuroleptic activity by measuring antagonism of d-amphetamine sulfate at intraperitoneal dosage of 5 mg/kg, after 24 hours in rat; Range is 10-32; type: functional; settings: ip
[10] = tested on: Rattus norvegicus; assay: Tested for neuroleptic activity by measuring antagonism of d-amphetamine sulfate at intraperitoneal dosage of 5 mg/kg, after 1 hour in rat; Range is 32-56; type: functional; settings: ip
[11] = tested on: Rattus norvegicus; assay: Tested for neuroleptic activity by measuring antagonism of d-amphetamine sulfate at intraperitoneal dosage of 5 mg/kg, after 1 hour in rat; Range is 10-32; type: functional; settings: ip
[12] = tested on: Rattus norvegicus; assay: Tested for neuroleptic activity by measuring antagonism of d-amphetamine sulfate at intraperitoneal dosage of 5 mg/kg, after 5 hours in rat; Range is 10-32; type: functional; settings: ip
[13] = tested on: Rattus norvegicus; assay: Tested for neuroleptic activity by measuring antagonism of d-amphetamine sulfate at intraperitoneal dosage of 5 mg/kg, after 1 hour in rat; Range is 0.1-0.32; type: functional; settings: ip
[14] = tested on: Rattus norvegicus; assay: Tested for neuroleptic activity by measuring antagonism of d-amphetamine sulfate at intraperitoneal dosage of 5 mg/kg, after 24 hours in rat; type: functional; settings: ip
[15] = tested on: Rattus norvegicus; assay: Tested for neuroleptic activity by measuring antagonism of d-amphetamine sulfate at intraperitoneal dosage of 5 mg/kg, after 1 hour in rat; Range is 3.2-10; type: functional; settings: ip
[16] = tested on: Rattus norvegicus; assay: Tested for neuroleptic activity by measuring antagonism of d-amphetamine sulfate at intraperitoneal dosage of 5 mg/kg, after 5 hours in rat; Range is 3.2-10; type: functional; settings: ip
[17] = tested on: Rattus norvegicus; assay: Tested for neuroleptic activity by measuring antagonism of d-amphetamine sulfate at intraperitoneal dosage of 5 mg/kg, after 1 hour in rat; Range is 1.0-3.2; type: functional; settings: ip
[18] = tested on: Canis familiaris; assay: The ability of compound to prevent the emesis induced by apomorphine (0.1 mg/kg, iv) in dogs at the specified dosage of 2.0 mg/kg (1 N saline); Range is 1-2; type: functional, Canis lupus familiaris
[19] = organism: Rattus norvegicus; assay: animal or person; settings: ip, 1 h
Description: tested for neuroleptic activity by measuring antagonism of d-amphetamine sulfate at intraperitoneal dosage of 5 mg/kg, after 1 hour in rat

[20] = organism: Rattus norvegicus; assay: animal or person; settings: ip, 24 h
Description: tested for neuroleptic activity by measuring antagonism of d-amphetamine sulfate at intraperitoneal dosage of 5 mg/kg, after 24 hours in rat

[21] = organism: Rattus norvegicus; assay: animal or person; settings: ip, 5 h
Description: tested for neuroleptic activity by measuring antagonism of d-amphetamine sulfate at intraperitoneal dosage of 5 mg/kg, after 5 hours in rat

[22] = tested on: Rattus norvegicus; assay: Tested for neuroleptic activity by measuring antagonism of d-amphetamine sulfate at intraperitoneal dosage of 5 mg/kg, after 5 hours in rat; Range is 0.1-0.32; type: functional; settings: ip
[23] = tested on: Rattus norvegicus; assay: Tested for neuroleptic activity by measuring antagonism of d-amphetamine sulfate at intraperitoneal dosage of 5 mg/kg, after 24 hours in rat; Range is 0.32-1.0; type: functional; settings: ip
[24] = tested on: Rattus norvegicus; assay: Tested for neuroleptic activity by measuring antagonism of d-amphetamine sulfate at intraperitoneal dosage of 5 mg/kg, after 24 hours in rat; Range is 1.0-3.2; type: functional; settings: ip
[25] = tested on: Canis familiaris; assay: The ability of compound to prevent the emesis induced by apomorphine (0.1 mg/kg, iv) in dogs at the specified dosage of 3.2 mg/kg (sesame oil); Range is 8-9; type: functional, Canis lupus familiaris
[26] = tested on: Canis familiaris; assay: The ability of compound to prevent the emesis induced by apomorphine (0.1 mg/kg, iv) in dogs at the specified dosage of 2.0 mg/kg (1 N saline); type: functional, Canis lupus familiaris

For `CCCCCCCCCCCCCCCCCC(=O)OC(CCCN1CCc2c(c3cc(F)ccc3n2-c2ccc(F)cc2)C1)c1ccc(F)cc1` (configuration not stated), the Protection [1] was 0 days.

`OC(CCCN1CCc2c(c3cc(F)ccc3n2-c2ccc(Cl)cc2)C1)c1ccc(F)cc1` (configuration not stated) showed an ED50 [2] of over 32 mg/kg, an ED50 [3] of over 32 mg/kg and an ED50 [4] of 1 mg/kg.

`Cl.Fc1ccc(CCCCN2CCc3c(c4cc(F)ccc4n3-c3ccc(F)cc3)C2)cc1` was tested, and the ED50 [5] was 0.32 mg/kg, the ED50 [6] was 0.32 mg/kg and the ED50 [7] was 3.2 mg/kg.

Work on `Cl.OC(CCCN1CCc2c(c3cc(F)ccc3n2-c2ccc(F)cc2)C1)c1cccc(F)c1` (configuration not stated) yielded an ED50 [5] of 0.32 mg/kg, an ED50 [8] of 1 mg/kg and an ED50 [9] of 10 mg/kg.

For `CN1CCc2c(c3cc(Cl)ccc3n2C)C1.Cl`, the ED50 [10] was 32 mg/kg.

`Cl.O=C(CCCN1CCc2c(c3cc(F)ccc3n2-c2ccc(F)cc2)C1)c1ccccc1` was tested, and the ED50 [11] was 10 mg/kg and the ED50 [12] was 10 mg/kg.

Compound `Cl.OC(CCCN1CCc2c(c3cc(F)ccc3n2-c2ccc(F)cc2)C1)c1ccccc1F` (configuration not stated) has an ED50 [13] of 0.1 mg/kg, an ED50 [8] of 1 mg/kg and an ED50 [14] of over 3.2 mg/kg.

Compound `Cl.O=C(CCCN1CCc2c(c3cc(F)ccc3n2-c2ccc(F)cc2)C1)c1ccc(Cl)cc1` has an ED50 [15] of 3.2 mg/kg and an ED50 [16] of 3.2 mg/kg.

Compound `Cl.Fc1ccc(/C=C/CCN2CCc3c(c4cc(F)ccc4n3-c3ccc(F)cc3)C2)cc1` has an ED50 [8] of 1 mg/kg, an ED50 [15] of 3.2 mg/kg and an ED50 [14] of over 3.2 mg/kg.

Compound `CN1CCN(CC/C=C2/c3ccccc3Sc3ccc(S(=O)(=O)N(C)C)cc32)CC1` [THIOTHIXENE] has an ED50 [5] of 0.32 mg/kg, an ED50 [6] of 0.32 mg/kg and an ED50 [14] of over 17.8 mg/kg.

`CN1CCc2c(c3cc(F)ccc3n2-c2ccc(F)cc2)C1.Cl` showed an ED50 [17] of 1 mg/kg, an ED50 [14] of over 10 mg/kg and an ED50 [16] of 3.2 mg/kg.

`CN1CCc2c(c3cc(F)ccc3n2-c2ccccc2)C1.Cl` showed an ED50 [12] of 10 mg/kg, an ED50 [15] of 3.2 mg/kg and an ED50 [14] of over 32 mg/kg.

With `CN1CCc2[nH]c3ccc(Cl)cc3c2C1` the ED50 [10] was 32 mg/kg.

`CN1CCc2c(c3cc(Cl)ccc3n2-c2ccc(F)cc2)C1.Cl` was tested, and the ED50 [17] was 1 mg/kg, the ED50 [14] was over 10 mg/kg and the ED50 [16] was 3.2 mg/kg.

For `Cl.OC(CCCN1CCc2c(c3cc(F)ccc3n2-c2ccc(F)cc2)C1)c1ccccc1` (configuration not stated), the ED50 [5] was 0.32 mg/kg, the ED50 [6] was 0.32 mg/kg and the ED50 [14] was over 3.2 mg/kg.

In the case of `CCCCCCC(=O)OC(CCCN1CCc2c(c3cc(F)ccc3n2-c2ccc(F)cc2)C1)c1ccc(F)cc1.Cl` (configuration not stated), the Protection [18] is reported as 1 days.

In the case of `Cl.O=C(CCN1CCc2c(c3cc(F)ccc3n2-c2ccc(F)cc2)C1)c1ccc(F)cc1`, the ED50 [19] is reported as over 32 mg/kg, the ED50 [20] is reported as over 32 mg/kg and the ED50 [21] is reported as over 32 mg/kg.

In the case of `CC(=O)OC(CCCN1CCc2c(c3cc(F)ccc3n2-c2ccc(F)cc2)C1)c1ccc(F)cc1` (configuration not stated), the Protection [1] is reported as 0 days.

Work on `O=C(CCCN1CCc2[nH]c3ccc(F)cc3c2C1)c1ccc(F)cc1` yielded an ED50 [17] of 1 mg/kg, an ED50 [14] of over 32 mg/kg and an ED50 [16] of 3.2 mg/kg.

In the case of `OC(CCCN1CCc2c(c3cc(F)ccc3n2-c2ccc(F)cc2)C1)c1ccc(F)cc1` (configuration not stated) [FLUTROLINE], the ED50 [13] is reported as 0.1 mg/kg, the ED50 [22] is reported as 0.1 mg/kg and the ED50 [23] is reported as 0.32 mg/kg.

In the case of `Cc1ccc(C(O)CCCN2CCc3c(c4cc(F)ccc4n3-c3ccc(F)cc3)C2)cc1.Cl` (configuration not stated), the ED50 [13] is reported as 0.1 mg/kg, the ED50 [8] is reported as 1 mg/kg and the ED50 [14] is reported as over 10 mg/kg.

`Cl.O=C(CCCN1CCc2c(c3cc(F)ccc3n2-c2ccc(F)cc2)C1)c1ccc(F)cc1` was tested, and the ED50 [17] was 1 mg/kg, the ED50 [8] was 1 mg/kg and the ED50 [24] was 1 mg/kg.

`Cl.OC(CCCCN1CCc2c(c3cc(F)ccc3n2-c2ccc(F)cc2)C1)c1ccc(F)cc1` (configuration not stated) gave an ED50 [17] of 1 mg/kg, an ED50 [8] of 1 mg/kg and an ED50 [14] of over 3.2 mg/kg.

For `Cl.OC(CCCN1CCc2c(c3cc(F)ccc3n2-c2ccc(F)cc2)C1)c1ccc(Cl)cc1` (configuration not stated), the ED50 [17] was 1 mg/kg, the ED50 [8] was 1 mg/kg and the ED50 [14] was over 3.2 mg/kg.

With `CCCCC(=O)OC(CCCN1CCc2c(c3cc(F)ccc3n2-c2ccc(F)cc2)C1)c1ccc(F)cc1.Cl` (configuration not stated) the Protection [25] was 8 days.

`CN1CCc2c(c3cc(Cl)ccc3n2-c2ccccc2)C1.Cl` gave an ED50 [12] of 10 mg/kg, an ED50 [15] of 3.2 mg/kg and an ED50 [14] of over 32 mg/kg.

`Cl.O=C(CCCN1CCc2c(c3cc(F)ccc3n2-c2ccc(F)cc2)C1)c1cccc(F)c1` gave an ED50 [11] of 10 mg/kg, an ED50 [12] of 10 mg/kg and an ED50 [14] of over 32 mg/kg.

For `COc1ccc(C(O)CCCN2CCc3c(c4cc(F)ccc4n3-c3ccc(F)cc3)C2)cc1.Cl` (configuration not stated), the ED50 [17] was 1 mg/kg, the ED50 [8] was 1 mg/kg and the ED50 [14] was over 3.2 mg/kg.

`Cl.OC(CCCN1CCc2c(c3cc(F)ccc3n2-c2ccccc2)C1)c1ccc(F)cc1` (configuration not stated) showed an ED50 [17] of 1 mg/kg, an ED50 [8] of 1 mg/kg and an ED50 [7] of 3.2 mg/kg.

`Cn1c2c(c3cc(F)ccc31)CN(CCCC(O)c1ccc(F)cc1)CC2` (configuration not stated) showed an ED50 [11] of 10 mg/kg, an ED50 [12] of 10 mg/kg and an ED50 [14] of over 32 mg/kg.

`Cl.OC(CCCN1CCc2c(c3cc(F)ccc3n2-c2ccc(C(F)(F)F)cc2)C1)c1ccc(F)cc1` (configuration not stated) was tested, and the ED50 [11] was 10 mg/kg and the ED50 [12] was 10 mg/kg.

For `Cl.OC(CCCN1CCc2c(c3cc(F)ccc3n2-c2ccccc2F)C1)c1ccc(F)cc1` (configuration not stated), the ED50 [5] was 0.32 mg/kg, the ED50 [8] was 1 mg/kg and the ED50 [14] was over 10 mg/kg.

In the case of `CCCCCCCCCC(=O)OC(CCCN1CCc2c(c3cc(F)ccc3n2-c2ccc(F)cc2)C1)c1ccc(F)cc1.Cl` (configuration not stated), the Protection [26] is reported as 0 days.
